Data from ChEMBL document CHEMBL1131031, “Indolequinone antitumor agents: reductive activation and elimination from (5-methoxy-1-methyl-4,7-dioxoindol-3-yl)methyl derivatives and hypoxia-selective cytotoxicity in vitro” (J Med Chem, 1998).

Assays:
[1] = In vitro cytotoxicity against hypoxic V79-379A cells determined by MTT assay in the presence of nitrogen; format: functional, cell-based; conditions: Cricetulus griseus
[2] = In vitro cytotoxicity against […] V79-379A cells determined by MTT assay in the presence of air; format: functional, cell-based; conditions: Cricetulus griseus

**Q.** Which IC50 [1] does the source give for COC1=CC(=O)c2c(c(COC(N)=O)cn2C)C1=O here?
**A.** The IC50 was 0.04 µM.

**Q.** And the IC50 [2]?
**A.** The IC50 was 3 µM.

**Q.** Which IC50 [1] does the source give for COC1=CC(=O)c2c(c(COC(=O)c3ccccc3F)c(C)n2C)C1=O here?
**A.** The IC50 was 2 µM.

**Q.** And the IC50 [2]?
**A.** The IC50 was 164 µM.

**Q.** Which IC50 [1] does the source give for COC1=CC(=O)c2c(c(Cc3cc(F)ccc3O)c(C)n2C)C1=O here?
**A.** Its IC50 is 110 µM.

**Q.** What about the IC50 [2] of the same compound?
**A.** Its IC50 is 200 µM.

**Q.** For COC1=CC(=O)c2c(c(COC(=O)c3ccccc3)cn2C)C1=O, which IC50 [1] is on record?
**A.** Its IC50 is 0.04 µM.

**Q.** And the IC50 [2]?
**A.** Its IC50 is 1.4 µM.

**Q.** What does the source list for COC1=CC(=O)c2c(c(COC(=O)c3ccc(F)cc3)cn2C)C1=O?
**A.** IC50 [1]: 0.05 µM; IC50 [2]: 0.7 µM

**Q.** Which IC50 [1] does the source give for COC1=CC(=O)c2c(c(COC(=O)c3ccccc3F)cn2C)C1=O here?
**A.** Its IC50 is 0.04 µM.

**Q.** What about the IC50 [2] of the same compound?
**A.** The IC50 was 0.5 µM.

**Q.** With COC1=CC(=O)c2c(c(COC(=O)c3ccccc3)c(C)n2C)C1=O as the compound, how does the IC50 [1] read?
**A.** Its IC50 is 0.2 µM.

**Q.** What about the IC50 [2] of the same compound?
**A.** Its IC50 is 16 µM.

**Q.** With COC1=CC(=O)c2c(c(COC(N)=O)c(C)n2C)C1=O as the compound, how does the IC50 [1] read?
**A.** The IC50 was 0.3 µM.

**Q.** What about the IC50 [2] of the same compound?
**A.** The IC50 was 25 µM.

**Q.** With COC1=CC(=O)c2c(c(COc3ccc(F)cc3)c(C)n2C)C1=O as the compound, how does the IC50 [1] read?
**A.** Its IC50 is 0.85 µM.

**Q.** What about the IC50 [2] of the same compound?
**A.** The IC50 was 31 µM.

**Q.** What does the source list for COC1=CC(=O)c2c(c(CO)cn2C)C1=O?
**A.** IC50 [1]: 240 µM; IC50 [2]: 220 µM

**Q.** Which results are given for COC1=CC(=O)c2c(c(CO)c(C3CC3)n2C)C1=O?
**A.** IC50 [1]: 820 µM; IC50 [2]: 540 µM

**Q.** With COC1=CC(=O)c2c(c(CO)c(C)n2C)C1=O as the compound, how does the IC50 [1] read?
**A.** Its IC50 is 285 µM.

**Q.** What about the IC50 [2] of the same compound?
**A.** The IC50 was 1080 µM.

**Q.** With COC1=CC(=O)c2c(c(Cc3ccc(O)c(F)c3)c(C)n2C)C1=O as the compound, how does the IC50 [1] read?
**A.** The IC50 was 280 µM.

**Q.** And the IC50 [2]?
**A.** The IC50 was 470 µM.

**Q.** Which IC50 [1] does the source give for CCOC(=S)SCc1c2c(n(C)c1C)C(=O)C=C(OC)C2=O here?
**A.** Its IC50 is 3 µM.

**Q.** And the IC50 [2]?
**A.** The IC50 was 67 µM.

**Q.** For COC1=CC(=O)c2c(c(COC(=O)c3ccccc3)c(C3CC3)n2C)C1=O, which IC50 [1] is on record?
**A.** The IC50 was 1 µM.

**Q.** And the IC50 [2]?
**A.** Its IC50 is 198 µM.

**Q.** For COC1=CC(=O)c2c(c(COc3cccc(NC(C)=O)c3)c(C)n2C)C1=O, which IC50 [1] is on record?
**A.** Its IC50 is 0.04 µM.

**Q.** And the IC50 [2]?
**A.** The IC50 was 3.7 µM.

**Q.** With COC1=CC(=O)c2c(c(COC(C)=O)c(C)n2C)C1=O as the compound, how does the IC50 [1] read?
**A.** Its IC50 is 2.5 µM.

**Q.** And the IC50 [2]?
**A.** The IC50 was 27 µM.

**Q.** What does the source list for COC1=CC(=O)c2c(c(COCc3ccccc3)c(C)n2C)C1=O?
**A.** IC50 [1]: 410 µM; IC50 [2]: 225 µM

**Q.** Which results are given for COC1=CC(=O)c2c(c(CCl)cn2C)C1=O?
**A.** IC50 [1]: 33 µM; IC50 [2]: 304 µM

**Q.** For COC1=CC(=O)c2c(c(COC(=O)Cc3ccc(-c4ccccc4)cc3)c(C)n2C)C1=O, which IC50 [1] is on record?
**A.** Its IC50 is 0.66 µM.

**Q.** And the IC50 [2]?
**A.** The IC50 was 14.1 µM.

**Q.** Which IC50 [1] does the source give for COC1=CC(=O)c2c(c(COc3c(Cl)cc(Cl)cc3Cl)cn2C)C1=O here?
**A.** Its IC50 is 0.08 µM.

**Q.** And the IC50 [2]?
**A.** Its IC50 is 0.7 µM.

**Q.** For COC1=CC(=O)c2c(c(COC(=O)c3ccc(F)cc3)c(C)n2C)C1=O, which IC50 [1] is on record?
**A.** The IC50 was 0.3 µM.

**Q.** What about the IC50 [2] of the same compound?
**A.** The IC50 was 27 µM.

**Q.** Which IC50 [1] does the source give for COC1=CC(=O)c2c(c(COc3ccccc3)c(C)n2C)C1=O here?
**A.** The IC50 was 0.7 µM.

**Q.** And the IC50 [2]?
**A.** The IC50 was 12 µM.
